Measured values taken from PMC10866072, “Design, synthesis, molecular modelling and biological evaluation of novel 6-amino-5-cyano-2-thiopyrimidine derivatives as potent anticancer agents against leukemia and apoptotic inducers” (Journal of Enzyme Inhibition and Medicinal Chemistry, 2024).

Tests used:
[1] = system: SK-MEL-5; assay type: cell-based; details: one dose 10^-5 M, 48 h
[2] = system: SF-268; assay type: cell-based; details: one dose 10^-5 M, 48 h
[3] = system: NCI-H23; assay type: cell-based; details: one dose 10^-5 M, 48 h
[4] = system: DU-145; assay type: cell-based; details: one dose 10^-5 M, 48 h
[5] = system: HT29; assay type: cell-based; details: one dose 10^-5 M, 48 h
[6] = system: HOP-92; assay type: cell-based; details: one dose 10^-5 M, 48 h
[7] = system: NCI/ADR-RES; assay type: cell-based; details: one dose 10^-5 M, 48 h
[8] = system: SK-MEL-28; assay type: cell-based; details: one dose 10^-5 M, 48 h
[9] = system: SNB-19; assay type: cell-based; details: one dose 10^-5 M, 48 h
[10] = system: MDA-MB-231/ATCC; assay type: cell-based; details: one dose 10^-5 M, 48 h
[11] = system: MDA-MB-468; assay type: cell-based; details: one dose 10^-5 M, 48 h
[12] = system: UACC-62; assay type: cell-based; details: one dose 10^-5 M, 48 h
[13] = system: SF-295; assay type: cell-based; details: one dose 10^-5 M, 48 h
[14] = system: K-562; assay type: cell-based; details: one dose 10^-5 M, 48 h
[15] = system: SN12C; assay type: cell-based, human; details: one dose 10^-5 M, 48 h
[16] = system: MDA-MB-435; assay type: cell-based; details: one dose 10^-5 M, 48 h
[17] = system: OVCAR-4; assay type: cell-based; details: one dose 10^-5 M, 48 h
[18] = system: HCC-2998; assay type: cell-based; details: one dose 10^-5 M, 48 h
[19] = system: RXF 393; assay type: cell-based; details: one dose 10^-5 M, 48 h
[20] = system: CCRF-CEM; assay type: cell-based; details: one dose 10^-5 M, 48 h
[21] = system: M14; assay type: cell-based; details: one dose 10^-5 M, 48 h
[22] = system: NCI-H460; assay type: cell-based; details: one dose 10^-5 M, 48 h
[23] = system: HL-60(TB); assay type: cell-based; details: one dose 10^-5 M, 48 h
[24] = system: LOX IMVI; assay type: cell-based; details: one dose 10^-5 M, 48 h
[25] = system: HS 578T; assay type: cell-based; details: one dose 10^-5 M, 48 h; HS 578T
[26] = system: UO-31; assay type: cell-based; details: one dose 10^-5 M, 48 h
[27] = system: U251; assay type: cell-based; details: one dose 10^-5 M, 48 h
[28] = system: NCI-H226; assay type: cell-based; details: one dose 10^-5 M, 48 h
[29] = system: SF-539; assay type: cell-based; details: one dose 10^-5 M, 48 h
[30] = system: TK-10; assay type: cell-based; details: one dose 10^-5 M, 48 h
[31] = system: COLO 205; assay type: cell-based; details: one dose 10^-5 M, 48 h
[32] = system: 786-0; assay type: cell-based; details: one dose 10^-5 M, 48 h
[33] = system: EKVX; assay type: cell-based; details: one dose 10^-5 M, 48 h
[34] = system: full NCI 60 cell lines panel
Method: 60 different human tumour cell lines-representing leukaemia, melanoma, and malignancies of the lung, colon, brain, ovary, breast, prostate, and kidney are used in the operation of this screen.
Compounds were dissolved in DMSO: glycerol (91) and were kept in a freezer at −70° C. The synthesised compounds were introduced to the culture at a single concentration of 1 0 ^−5 M and left to incubate for 48 h. A protein-binding dye called sulforhodamine B was used to measure end points (SRB).
A mean graph showing the % growth of treated cells is used to represent the one-dose data. The value provided for the One-dose assay represents growth in comparison to the no-drug control and to the number of cells at time zero. This enables the identification of lethality (values between 0 and 100) as well as growth inhibition (values less than 0). A value of 100, for instance, indicates no growth inhibition. A value of 40 would indicate 60% growth inhibition. A value of 0 indicates no net growth over the course of the experiment. A value of −40 would indicate 40% lethality.
Furthermore, the average sensitivity of all cell lines to the compound is termed as the full panel mean graph midpoints (MG-MID). The complete panel mean graph midpoints refers to the average sensitivity of all cell lines to the chemical (MG-MID). A measure of a compound’s selectivity for a given cell line is the ratio created by dividing the full panel mean graph midpoints (MG-MID) concentration by the individual subpanel MG-MID concentrations (obtained as the average sensitivity of all the cell lines in a given subpanel to the test compound).

[35] = system: OVCAR-5; assay type: cell-based; details: one dose 10^-5 M, 48 h
[36] = system: NCI-H522; assay type: cell-based; details: one dose 10^-5 M, 48 h
[37] = system: HOP-62; assay type: cell-based; details: one dose 10^-5 M, 48 h
[38] = system: KM12; assay type: cell-based; details: one dose 10^-5 M, 48 h
[39] = system: T-47D; assay type: cell-based; details: one dose 10^-5 M, 48 h
[40] = system: SW-620; assay type: cell-based; details: one dose 10^-5 M, 48 h
[41] = system: UACC-257; assay type: cell-based; details: one dose 10^-5 M, 48 h
[42] = system: MCF7; assay type: cell-based; details: one dose 10^-5 M, 48 h
[43] = system: CAKI-1; assay type: cell-based; details: one dose 10^-5 M, 48 h
[44] = system: SR; assay type: cell-based; details: one dose 10^-5 M, 48 h
[45] = system: IGROV1; assay type: cell-based; details: one dose 10^-5 M, 48 h
[46] = system: HCT-15; assay type: cell-based; details: one dose 10^-5 M, 48 h
[47] = system: OVCAR-8; assay type: cell-based; details: one dose 10^-5 M, 48 h
[48] = system: BT-549; assay type: cell-based; details: one dose 10^-5 M, 48 h
[49] = system: ACHN; assay type: cell-based; details: one dose 10^-5 M, 48 h
[50] = system: MALME-3M; assay type: cell-based; details: one dose 10^-5 M, 48 h
[51] = system: PC-3; assay type: cell-based; details: one dose 10^-5 M, 48 h
[52] = system: A498; assay type: cell-based; details: one dose 10^-5 M, 48 h
[53] = system: HCT-116; assay type: cell-based; details: one dose 10^-5 M, 48 h
[54] = system: SK-MEL-2; assay type: cell-based; details: one dose 10^-5 M, 48 h
[55] = system: SK-OV-3; assay type: cell-based; details: one dose 10^-5 M, 48 h
[56] = system: OVCAR-3; assay type: cell-based; details: one dose 10^-5 M, 48 h
[57] = system: A549/ATCC; assay type: cell-based; details: one dose 10^-5 M, 48 h
[58] = system: MOLT-4; assay type: cell-based; details: one dose 10^-5 M, 48 h
[59] = system: RPMI-8226; assay type: cell-based; details: one dose 10^-5 M, 48 h

3-Amino-4–(2,4-dichlorophenyl)-1H-pyrazolo[3,4-d] pyrimidine-6-thiol [Compound 3c]
% growth [1]: 108.42% | % growth [2]: 108.35% | % growth [3]: 103.34% | % growth [4]: 119.84% | % growth [5]: 110.65% | % growth [6]: 76.20% | % growth [7]: 114.09% | % growth [8]: 115.84% | % growth [9]: 93.39% | % growth [10]: 94.87% | % growth [11]: 110.26% | % growth [12]: 93.81% | % growth [13]: 94.52% | % growth [14]: 105.30% | % growth [15]: 105.03% | % growth [16]: 110.71% | % growth [17]: 105.05% | % growth [18]: 103.06% | % growth [19]: 114.73% | % growth [20]: 94.56% | % growth [21]: 106.66% | % growth [22]: 115.81% | % growth [23]: 89.08% | % growth [24]: 106.21% | % growth [25]: 100.24% | % growth [26]: 85.75% | % growth [27]: 103.99% | % growth [28]: 106.10% | % growth [29]: 94.60% | % growth [30]: 146.75% | % growth [31]: 120.01% | % growth [32]: 100.98% | % growth [33]: 115.88% | activity on all 60 cancer cell lines tested (in words) ([34]; one dose): weak activity | Mean % growth ([34]; one dose 10^-5 M, 48 h, mean over all cell lines): 104.17% | % growth [35]: 108.30% | % growth [36]: 95.34% | % growth [37]: 92.49% | % growth [38]: 104.75% | % growth [39]: 92.59% | % growth [40]: 106.47% | % growth [41]: 107.51% | % growth [42]: 95.64% | % growth [43]: 96.86% | % growth [44]: 97.30% | % growth [45]: 105.59% | % growth [46]: 111.27% | % growth [47]: 109.69% | % growth [48]: 100.27% | % growth [49]: 106.88% | % growth [50]: 92.32% | % growth [51]: 96.81% | % growth [52]: 125.09% | % growth [53]: 112.94% | % growth [54]: 108.60% | % growth [55]: 86.72% | % growth [56]: 109.08% | % growth [57]: 104.45% | % growth [58]: 90.06% | % growth [59]: 108.63%
